Data: patent publication EP4491625A1, “BENZO BICYCLIC COMPOUND, AND PREPARATION METHOD AND APPLICATION THEREOF” (Guangzhou Unirise Pharmaceutical Co., Ltd., priority 2022, dated 2023)
Structures can show the parent of a compound that is named as a salt.

Experiments:
[1] = Pharmacokinetic study in rats (intravenous or gavage, plasma LC-MS/MS); assay type: in vivo; settings: SD rats; for F: po 5 mg/kg versus iv 1 mg/kg; for AUC(0-t) / Cmax / Tmax / half-life: rat, plasma
Experimental: SD rats: male, 6-8 weeks old, weighing 200-300 g, purchased from SPF ( Beijing ) Biotechnology Co.,Ltd..
At each PK sampling point, 200 µL of whole blood was collected into EDTA-K2 anticoagulant blood tubes and centrifuged at 4°C for 30 min to obtain plasma. Whole blood samples were placed on wet ice before centrifugation. All collected plasma samples were stored on dry ice or frozen until analyzed.
Approximately1 mg of the compound of the present application was weighed and dissolved in DMSO, vortexed and sonicated to obtain a 1 mg/mL standard stock solution. The standard stock solution was diluted with 50% aqueous acetonitrile to obtain standard working solutions with concentrations of 5, 10, 20, 50, 100, 500, 1000, 5000 and 10000 ng/mL. QC working solutions with concentrations of 10, 20, 500 and 8000 ng/mL were prepared using the same dilution method. These QC samples were prepared on the day of analysis in the same way as the standard curve samples.5 µL of standard working solution with concentrations of (5, 10, 20, 50, 100, 500, 1000, 5000 and 10000 ng/mL) was added to 50 µL of blank SD rat plasma to obtain a total volume of 55 µL with concentrations of 0.5-1000 ng/mL (0.5, 1, 2, 5, 10, 50, 100, 500, and 1000 ng/mL) of standard curve samples. QC samples with concentrations of (1 ng/ml (low-1) and 2 ng/ml (low-2), 50 ng/ml (medium), 800 ng/ml (high)) were configured separately.
55 µL of standard samples, 55 µL of QC samples or 55 µL of unknown samples (50 µL of plasma samples added to 5 µL of 50% aqueous acetonitrile) were added to 200 µL of acetonitrile containing an internal standard (dexamethasone) to precipitate proteins. […] The supernatant was taken and diluted 3-fold with water, and 5 µL of the supernatant dilution was injected into the LC-MS/MS system for quantitative analysis under the following assay conditions:
Column: HALO 90A Phenly-Hexyl, 2µm 2.1×30mm.
Pharmacokinetic parameters were calculated by the […] of Phoenix TM Winnonlin® 8.3 software.

[2] = Human liver microsome stability test; assay type: in vitro ADME; settings: pH 7.4; human liver microsomes 0.5 mg/mL, 1 µM compound, NADPH, 37 °C
Experimental: Preparation of compound working solutions: A high-concentration stock solution of the subject and control drug verapamil powder was prepared in DMSO and diluted to a working solution of 100 µM with DMSO before use, with a final concentration of 1 µM of the subject and verapamil.
Preparation of phosphate buffer salt (100 mM, pH 7.4): 7.098 g of disodium hydrogen phosphate was weighed and dissolved ultrasonically in 500 mL of purified water as solution A. 3.400 g of potassium dihydrogen phosphate was weighed and dissolved ultrasonically in 250 mL of purified water as solution B. Solution B was added to the inside of solution A to give a pH of 7.4.
Preparation of 10 mM NADPH: An appropriate amount of NADPH is now weighed before the experiment and a working solution of 10 mM concentration is prepared from phosphate solution.
Preparation of the incubation system: The incubation system was prepared according to the following table, and the incubation system was preheated in a water bath at 37 °C for 10 minutes before use.
Transfer 25 µL of NADPH or phosphate buffer salt to the above incubation system and add 2.5 µL of 100 µM subject or verapamil. For NADPH-added samples, double-parallel preparations were performed; for NADPH-negative samples, single-parallel preparations were performed.
30 µL of the suspension was taken at 0.5, 5, 15, 30, and 60 min, respectively. The reaction was terminated by adding 150 µL of acetonitrile containing the internal standard and vortexed for 10 min.
This was followed by centrifugation at 3220 g for 40 min for protein precipitation. 100 µL of supernatant was transferred to the injection plate and mixed with 100 µL of pure water for UPLC-MS/MS analysis.
All data calculations were performed by Microsoft Excel software. Peak areas were detected by extracted ion mapping. The in vitro half-life (t1/2) of the parent drug was assayed by fitting the natural logarithm of the percentage elimination of the parent drug linearly with time.
The in vitro half-life (t1/2) was calculated by slope: t1/2 = 0.693 / k
The in vitro clearance (in µL/min/mg) was calculated using the following formula: CLint =0.693/ t1/2 * (Incubation system volume (μL) / protein content (mg)) [formula]
Table 3 the experimental results of human liver microsome of the compounds provided in some examples of the present invention

GLP-1 receptor = molecular target: T1, GLP-1 receptor (Homo sapiens, UniProt P43220); test: cAMP detection assay of agonistic effect in HEK293 cells with high expression of hGLP-1R; assay type: cell-based; settings: agonistic effect, cAMP, HEK293 cells with high expression of hGLP-1R; read-out: EC50
T1 construct: host or cells: HEK293
T1 sequence (P43220 24-463): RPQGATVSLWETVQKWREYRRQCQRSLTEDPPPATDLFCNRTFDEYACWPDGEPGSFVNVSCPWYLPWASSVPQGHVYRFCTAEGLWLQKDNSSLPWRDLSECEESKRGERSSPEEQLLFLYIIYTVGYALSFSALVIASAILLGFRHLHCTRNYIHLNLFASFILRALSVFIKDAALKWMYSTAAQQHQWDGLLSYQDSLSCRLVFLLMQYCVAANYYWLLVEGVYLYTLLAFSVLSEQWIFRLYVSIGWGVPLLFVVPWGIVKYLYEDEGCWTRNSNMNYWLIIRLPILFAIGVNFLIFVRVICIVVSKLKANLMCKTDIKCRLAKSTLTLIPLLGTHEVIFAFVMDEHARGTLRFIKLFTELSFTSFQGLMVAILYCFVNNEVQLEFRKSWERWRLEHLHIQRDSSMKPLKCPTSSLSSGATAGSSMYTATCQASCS
Experimental: The cells were constructed by Wuxi New Drug Development Co., Ltd. Shanghai.
The compound was prepared with DMSO to a working concentration of 100µM or 10µM. 10 points of 4-fold dilution (maximum concentration of 1000nM or 100nM after dilution) was done with Bravo V11.
The compound to be tested was diluted 4 times with Bravo to obtain 10 concentrations and the initial concentration was 100µM by Bravo V11. The initial concentration was 100µM.

O=C(O)c1ccc2nc(CC3CC=C(c4cccc(OCc5ccc(Cl)c6cc(Cl)oc56)n4)CC3)n(C[C@@H]3CCO3)c2c1 (stereo partly drawn) [Compound 25, 2-((4-(6-((2,4-dichlorobenzofuran-7-yl)methoxy)pyridin-2-yl)cyclohex-3-en-1-yl)methyl)-1-(((S)-oxetan-2-yl)methyl)-1H-benzo[d]imidazole-6-carboxylic acid]
F [1]: 38.8% | AUC(0-t) ([1]; male, iv, 1 mg/kg): 1250 ng·h/mL | Cmax ([1]; male, iv, 1 mg/kg): 1080 ng/mL | Tmax ([1]; male, iv, 1 mg/kg): 0.083 h | half-life ([1]; male, iv, 1 mg/kg): 2.57 h | AUC(0-t) ([1]; male, po, 5 mg/kg): 2440 ng·h/mL | Cmax ([1]; male, po, 5 mg/kg): 460 ng/mL | Tmax ([1]; male, po, 5 mg/kg): 4 h | half-life ([1]; male, po, 5 mg/kg): 5.29 h

O=C(O)c1ccc2nc(CC3CC=C(c4ncc(F)c(OCc5ccc(Cl)c6cc(F)oc56)n4)CC3)n(C[C@@H]3CCO3)c2n1 (stereo partly drawn) [Compound 5, 2-((4-(4-((4-chloro-2-fluorobenzofuran-7-yl)methoxy)-5-fluoropyrimidin-2-yl)cyclohex-3-en-1-yl)methyl)-3-(((S)-oxetan-2-yl)methyl)-3H-imidazo[4,5-b]pyridine-5-carboxylic acid]
half-life at 1 µM [2]: > 3.08 h

O=C(O)c1cc(F)c2nc(C[C@H]3CC[C@H](c4cccc(OCc5ccc(Cl)c6cc(F)oc56)n4)CC3)n(C[C@@H]3CCO3)c2c1 [Compound 39, 2-(((1r,4S)-4-(6-((4-chloro-2-fluorobenzofuran-7-yl)methoxy)pyridin-2-yl)cyclohexyl)methyl)-4-fluoro-1-(((S)-oxetan-2-yl)methyl)-1H-benzo[d]imidazole-6-carboxylic acid]
EC50 (GLP-1 receptor): 0.15 nM

O=C(O)c1ccc2nc(CC3CCC(c4cccc(OCc5ccc(Cl)c6cc(F)oc56)n4)CC3)n(C[C@@H]3CCO3)c2c1 (stereo partly drawn) [Compound 7, (5)-2-((4-(6-((4-chloro-2-fluorobenzofuran-7-yl)methoxy)pyridin-2-yl)cyclohexyl)methyl)-1-(oxetan-2-ylmethyl)-1H-benzo[d]imidazole-6-carboxylic acid]
EC50 (GLP-1 receptor): 0.22 nM

O=C(O)c1ccc2nc(CC3CC=C(c4cccc(OCc5ccc(Cl)c6ccoc56)n4)CC3)n(C[C@@H]3CCO3)c2n1 (stereo partly drawn) [Compound 34, 2-((4-(6-((4-chlorobenzofuran-7-yl)methoxy)pyridin-2-yl)cyclohex-3-en-1-yl)methyl)-3-(((S)-oxetan-2-yl)methyl)-3H-imidazo[4,5-b]pyridine-5-carboxylic acid]
EC50 (GLP-1 receptor): 0.2 nM

CCn1cncc1Cn1c(CC2CC=C(c3cccc(OCc4ccc(Cl)c5cc(F)oc45)n3)CC2)nc2ccc(C(=O)O)cc21 (stereo not drawn) [Compound 29, 2-((4-(6-((4-chloro-2-fluorobenzofuran-7-yl)methoxy)pyridin-2-yl)cyclohex-3-en-1-yl)methyl)-1-((1-ethyl-1H-imidazol-5-yl)methyl)-1H-benzo[d]imidazole-6-carboxylic acid hydrochloride]
EC50 (GLP-1 receptor): 0.22 nM

O=C(O)c1ccc2nc(CC3CC=C(c4ncc(F)c(OCc5ccc(Cl)c6ccoc56)n4)CC3)n(C[C@@H]3CCO3)c2c1 (stereo partly drawn) [Compound 3, 2-((4-(4-((4-chlorobenzofuran-7-yl)methoxy)-5-fluoropyrimidin-2-yl)cyclohex-3-en-1-yl)methyl)-1-(((S)-oxetan-2-yl)methyl)-1H-benzo[d]imidazole-6-carboxylic acid]
half-life at 1 µM [2]: 1.84 h | EC50 (GLP-1 receptor): 0.26 nM

O=C(O)c1cc2c(nc(CC3CC=C(c4cccc(OCc5ccc(Cl)c6cc(F)oc56)n4)CC3)n2C[C@@H]2CCO2)s1 (stereo partly drawn) [Compound 8, 2-((4-(6-((4-chloro-2-fluorobenzofuran-7-yl)methoxy)pyridin-2-yl)cyclohex-3-en-1-yl)methyl)-1-(((S)-oxetan-2-yl)methyl)-1H-thieno[2,3-d]imidazole-5-carboxylic acid]
half-life at 1 µM [2]: 3 h

N#CCC1(Cn2c(CC3CC=C(c4cccc(OCc5ccc(Cl)c6cc(F)oc56)n4)CC3)nc3ccc(C(=O)O)cc32)CC1 (stereo not drawn) [Compound 28, 2-((4-(6-((4-chloro-2-fluorobenzofuran-7-yl)methoxy)pyridin-2-yl)cyclohex-3-en-1-yl)methyl)-1-((1-(cyanomethyl)cyclopropyl)methyl)-1H-benzo[d]imidazole-6-carboxylic acid]
half-life at 1 µM [2]: > 3.08 h | EC50 (GLP-1 receptor): 0.07 nM

O=C(O)c1ccc2nc(CC3CC=C(c4cccc(OCc5ccc(Cl)c6cc(F)oc56)n4)CC3)n(C[C@@H]3CCO3)c2n1 (stereo partly drawn) [Compound 6, 2-((4-(6-((4-chloro-2-fluorobenzofuran-7-yl)methoxy)pyridin-2-yl)cyclohex-3-en-1-yl)methyl)-3-(((S)-oxetan-2-yl)methyl)-3H-imidazo[4,5-b]pyridine-5-carboxylic acid]
half-life at 1 µM [2]: 1.86 h

O=C(O)c1ccc2nc(C[C@H]3CC[C@H](c4cccc(OCc5ccc(Cl)c6cc(Cl)oc56)n4)CC3)n(C[C@@H]3CCO3)c2c1 [Compound 38B, 2-(((1r,4S)-4-(6-((2,4-dichlorobenzofuran-7-yl)methoxy)pyridin-2-yl)cyclohexyl)methyl)-1-(((S)-oxetan-2-yl)methyl)-1H-benzo[d]imidazole-6-carboxylic acid]
F [1]: 21.1% | AUC(0-t) ([1]; iv, 1 mg/kg): 3940 ng·h/mL | Cmax ([1]; iv, 1 mg/kg): 5280 ng/mL | Tmax ([1]; iv, 1 mg/kg): 0.083 h | half-life ([1]; iv, 1 mg/kg): 1.45 h | AUC(0-t) ([1]; po, 5 mg/kg): 4130 ng·h/mL | Cmax ([1]; po, 5 mg/kg): 1400 ng/mL | Tmax ([1]; po, 5 mg/kg): 1.17 h | half-life ([1]; po, 5 mg/kg): 2.62 h

O=C(O)c1ccc2nc(C[C@H]3CC=C(c4cccc(OCc5ccc(Cl)c6cc(F)oc56)n4)CC3)n(C[C@@H]3CCO3)c2c1 [Compound 36B, 2-(((R)-4-(6-((4-chloro-2-fluorobenzofuran-7-yl)methoxy)pyridin-2-yl)cyclohex-3-en-1-yl)methyl)-1-(((S)-oxetan-2-yl)methyl)-1H-benzo[d]imidazole-6-carboxylic acid]
EC50 (GLP-1 receptor): 0.22 nM

O=C(O)c1ccc2nc(CC3CC=C(c4ncc(F)c(OCc5ccc(Cl)c6cc(F)oc56)n4)CC3)n(C[C@@H]3CCO3)c2c1 (stereo partly drawn) [Compound 31]
half-life at 1 µM [2]: 2.77 h | EC50 (GLP-1 receptor): 0.19 nM

N#CCC1(Cn2c(C[C@H]3CC[C@H](c4cccc(OCc5ccc(Cl)c6cc(F)oc56)n4)CC3)nc3ccc(C(=O)O)cc32)CC1 [Compound 43, 2-(((1r,4r)-4-(6-((4-chloro-2-fluorobenzofuran-7-yl)methoxy)pyridin-2-yl)cyclohexyl)methyl)-1-((1-(cyanomethyl)cyclopropyl)methyl)-1H-benzo[d]imidazole-6-carboxylic acid]
EC50 (GLP-1 receptor): 0.2 nM
